Laboratory results taken from the METLIN SMRT retention time set (Domingo-Almenara et al. 2019).

Experiment: gradient 5% acetonitrile 3 min, to 50% in 2 min, to 85% in 15 min, held 3 min, 100 µL/min
Conditions: column: Zorbax Extend-C18 2.1 x 50 mm; eluents: water / acetonitrile, 0.1% formic acid
How it was run: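 Retention times of pure standards were taken from adduct peaks that were selected by computer and manually inspected. Over 3 months, mixtures of ~100 molecules were run by HPLC–quadrupole time-of-flight mass spectrometry in positive and negative ionization mode. The Zorbax Extend-C18 column (2.1 × 50 mm, 1.8 μm) ran at 100 μL/min in water and acetonitrile, each containing 0.1% formic acid, with 40 μL dead volume and 900 μL dwell volume.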

| Structure (SMILES) | RP-LC retention time [s] |
| --- | --- |
| O=C(NCCCc1ccccc1)C(=O)NCc1n[nH]c(=O)c2ccccc12 | 746 |
| Cc1nc2n(c(=O)c1C)CCN2CC(=O)NCc1ccco1 | 596 |
| Cc1cc(C)cc(NC(=O)CSc2nccc(N3CCN(c4cc(C)ccc4C)CC3)n2)c1 | 989 |
| Cc1nc(-n2nc(C)c(Cl)c2C)sc1C(=O)N1CCCCC1 | 1200 |
| CCc1nc(N2CCCC2=O)sc1C(=O)Nc1ccc(OC)c(Cl)c1 | 905 |
| Cc1ccc(-c2ccc3nn(Cc4nc(-c5ccc(Br)cc5)no4)c(=O)n3n2)cc1 | 1100 |
| O=C(Cn1cnc2nc(N3CCC(C(=O)NC4CC4)CC3)sc2c1=O)Nc1cc(F)ccc1F | 693 |
| CCc1ccccc1S(=O)(=O)N(C)CC1CCOC1 (centres undefined) | 850 |
| Cc1ccc(S(=O)(=O)N(C)CC2CCOCC2)cc1C | 886 |
| COc1ccccc1-c1nnc(N)s1 | 598 |
| CC(C)C(=O)Nc1cn(-c2ccc(C(=O)Nc3ccc4c(c3)OCCO4)cc2)cn1 | 808 |
| Cc1ccc(C)c(S(=O)(=O)N2CCC3(CC2)NCCN=C3NCc2ccc(F)cc2)c1 | 772 |
| COCCN1C(=O)CCc2cc(NS(=O)(=O)c3ccc(F)cc3)ccc21 | 759 |
| CCn1c(=O)oc2cc(-c3noc(-c4cc(F)ccc4F)n3)ccc21 | 1100 |
| O=c1ccc(-c2ccc3c(c2)OCO3)nn1Cc1nc(-c2cccc(Cl)c2)no1 | 1040 |
| CCn1nccc1C(=O)N1c2ccccc2CC1c1nnc(C2CC2)o1 (centres undefined) | 755 |
| COc1ccccc1-c1csc(NC(=O)c2sc(COc3ccc(Cl)c(C)c3)nc2C)n1 | 1360 |
| O=C(NCCCN1CCOCC1)C1CCCN(c2cnc3nccnc3c2)C1 (centres undefined) | 565 |
| CCc1nc2cc3c(cc2n1CC(=O)Nc1ccccc1OC)OCCO3 | 627 |
| O=C(CSc1cc(N2CCN(c3ccccc3F)CC2)ncn1)NC1CCCC1 | 963 |

| Structure (SMILES) | RP-LC retention time [s] |
| --- | --- |
| Cc1ccc(-c2cc(C(=O)NC3CC3)n(C)c2)cc1 | 915 |
| CCOC(=O)c1noc2ncnc(Nc3ccc(CC)cc3)c12 | 1060 |
| CCN1CCC(N(Cc2cccs2)C(=O)Nc2cc(OC)c(OC)c(OC)c2)CC1 | 628 |
| CCCOc1ccnc2c1c(=O)n(CC(=O)Nc1cc(C)on1)c(=O)n2C | 675 |
| COc1ccc(NC(=O)C2CCCN(c3cnc4nccnc4c3)C2)cc1F (centres undefined) | 726 |
| O=C(NC1CCCCC1)C1CCc2nc(N3CCCCC3)ncc2C1 (centres undefined) | 723 |
| Cn1nc(C(=O)OCc2cc(-c3ccc(Cl)cc3)on2)ccc1=O | 812 |
| Cc1cccc2nc(-c3cccc(Cl)c3)c(Nc3ccc4c(c3)OCCO4)n12 | 717 |
| Cc1cccc(Cn2nc3n(Cc4ccc(F)cc4)c(=O)c4nn(C)cc4n3c2=O)c1 | 940 |
| CCCN1CCN(CCCNC(=O)c2ccc3c(c2)N(C)C(=O)C2CCCCN32)CC1 (centres undefined) | 597 |
| Cc1ccc(-c2nc(C3CC(=O)N(c4ccc(F)cc4)C3)no2)cc1C (centres undefined) | 1100 |
| Cc1oc(C2CCC2)nc1C(=O)NCc1ccccc1C(F)(F)F | 1130 |
| CCn1c(=O)c(=O)n(CC(=O)NC2CCCCCC2)c2cccnc21 | 760 |
| CCC(=O)N(C)c1nc2ccccc2n(CC(=O)Nc2c(C)cc(C)cc2C)c1=O | 822 |
| COc1cccc(N2CCN(C(=O)C3CCN(S(=O)(=O)c4cn(C)c(C)n4)CC3)CC2)c1 | 702 |
| CCOCCCNC(=O)C1CCCN(c2cc(=O)n(C)c(=O)n2C)C1 (centres undefined) | 665 |
| Cc1cccc(-c2nc(C3CCN(S(=O)(=O)c4cccc(F)c4)CC3)no2)c1 | 1170 |
| CN(Cc1ccccc1)c1ncc(C(=O)Nc2ccccc2)c(N)n1 | 731 |
| COc1cccc(-c2noc(-c3nn(-c4cccc(F)c4)ccc3=O)n2)c1OC | 807 |
| CC[C@H](C)NC(=O)Cc1nnc(-c2ccc(OC)cc2)o1 | 707 |

| Structure (SMILES) | RP-LC retention time [s] |
| --- | --- |
| O=C(NC1CCSC1=O)c1ccccc1 (centres undefined) | 638 |
| Cn1cc(C(CNC(=O)Nc2cccc(F)c2)c2cccnc2)c2ccccc21 (centres undefined) | 660 |
| Cc1ccc(-c2[nH]ncc2CN)cc1 | 562 |
| Cc1ccc(NC(=O)Cn2c(=O)n(-c3ccc(F)cc3)c3ncccc32)c(C)c1 | 875 |
| CCn1c(=O)n(CC)c2cc(S(=O)(=O)c3ccccc3)c(NC(=O)CC(C)C)cc21 | 937 |
| Cc1ccc(NC(=O)C2CCN(S(=O)(=O)c3cc(C(=O)N4CCCC4)n(C)c3)CC2)nc1 | 647 |
| Cc1cc2n(n1)CCC(=O)N2CCCC(=O)NCCCN1CCc2ccccc2C1 | 580 |
| O=C1NC2(CCN(C(=O)c3ccc4c(c3)OCO4)CC2)Nc2cc(Cl)ccc21 | 708 |
| Cn1c(C2CCN(C(=O)Nc3ccccc3C(F)(F)F)CC2)cc(=O)n2nccc12 | 654 |
| COc1cc(NC(=O)N2CCC3(CC2)N=C(c2cccc(F)c2)C(=O)N3)cc(OC)c1 | 822 |
| OCCOCCNCc1ccc(-c2ccccc2F)o1 | 616 |
| CS(=O)(=O)Nc1ccc(-c2noc(-c3ccc4c(c3)OCO4)n2)cc1 | 897 |
| CCc1cccc(NC(=O)N2[C@H]3CC[C@@H]2c2cncnc2C3)c1 | 741 |
| Cc1nn(C2CCS(=O)(=O)C2)c2nc(-c3ccco3)cc(C(=O)NCC3CCCO3)c12 (centres undefined) | 683 |
| C=CCn1nnc(NCc2ccc(-c3ccc(Cl)cc3Cl)o2)n1 | 1160 |
| CCCNC(=O)C1CCN(c2ccc(SCC(=O)Nc3ccc4c(c3)OCO4)nn2)CC1 | 610 |
| Cc1ccc(C2NC(=O)N(CC(=O)Nc3cc(C)on3)C3=C2C(=O)OC3)cc1 (centres undefined) | 722 |
| CN(CC(=O)N1CCN(c2ccccc2)CC1)S(=O)(=O)c1ccc2c(c1)CCCC(=O)N2 | 737 |
| CN1C(=O)c2cc(C(=O)NCc3ccccc3Cl)nn2CC1(C)C(=O)NC1CCCCC1 (centres undefined) | 839 |

Continued, values first:

| RP-LC retention time [s] | Structure (SMILES) |
| --- | --- |
| 873 | O=C(Cc1csc2nc(-c3ccccc3)cn12)N1CCCc2ccccc21 |
| 636 | CCn1cnc2ccc(-c3noc(C(C)NC(=O)c4ccccc4)n3)cc21 (centres undefined) |
| 1100 | CCc1nc(-c2cccc(-c3noc(CNC(=O)Cc4ccc(Cl)cc4)n3)c2)cs1 |
| 1100 | CCn1c(=O)c2ccccc2n(Cc2nc(-c3ccc(C)c(C)c3)no2)c1=O |
| 740 | COc1ccc(CCNC(=O)NCCS(=O)(=O)c2c(C)n(C)c3ccccc23)cc1 |
| 687 | CC1=C(c2ccc(C)cc2)S(=O)(=O)N=C1N1CCCN(C(=O)c2cccnc2)CC1 |
| 757 | COc1ccccc1N1CCN(Cc2nc(-c3ccc(N4CCCCC4)nc3)no2)CC1 |
| 678 | Cc1ccc(C)c(CNC(=O)c2ccc3ncnc(N4CCCC4)c3c2)c1 |
| 930 | CCCOc1ccc(-c2nc(N3CCCCC3)c3ccccc3n2)cc1 |
| 672 | CCC(CC)C(=O)Nc1c(-c2ccc(OC)cc2)nc2cc(C)ccn12 |
| 761 | CC(C)n1cc(S(=O)(=O)N2CCN(c3cccc(Cl)c3)CC2)c2cccnc21 |
| 881 | O=C(NCCC1CCN(S(=O)(=O)c2ccc(F)cc2)CC1)Nc1ccccc1 |
| 593 | CC(C)NC(=O)c1c2c(nc3ccccc13)CCC2 |
| 599 | Cn1cc(CCN2CCC(C(=O)NCc3cccc(F)c3)CC2)c2cccnc21 |
| 1130 | CCOc1ccccc1-c1nc(C2CC(=O)N(c3ccc(CC)cc3)C2)no1 (centres undefined) |
| 675 | COc1ccc(CC(=O)Nc2cc(-c3cn4cccnc4n3)ccc2OC)cc1 |
| 1260 | O=C(Nc1cccc(Br)c1)C1CCCN(c2ncc(-c3cccc(F)c3)cn2)C1 (centres undefined) |
| 1050 | CCCCn1c(=O)c2c(nc3n2CCCCN3c2ccc(OCC)cc2)n(C)c1=O |
| 694 | Cc1ccc(NC(=O)N2CCCC(Cn3c(C4CC4)nc4cccnc43)C2)c(C)c1 (centres undefined) |
| 1050 | CCOc1ccc(S(=O)(=O)N2CCCC(C(=O)Nc3cccc(C)c3)C2)cc1 (centres undefined) |
| 978 | COC(=O)c1c(-c2ccc(Cl)cc2)noc1N1CCN(C(=O)c2ccco2)CC1 |
| 1090 | Cc1cccc(NC(=O)Cn2nc(N3CCCC(C)C3)c3ccccc3c2=O)c1 (centres undefined) |
| 681 | CCCOc1ccc(-c2cn3ccccc3n2)cc1[N+](=O)[O-] |
| 608 | Cn1cc(CCN2CCN(S(=O)(=O)c3ccccc3F)CC2)c2cccnc21 |
| 1120 | CCn1nccc1C(=O)N1CC(Oc2ccc(-c3nc(-c4ccccc4)no3)cc2)C1 |
| 1050 | Cc1ccc(CNS(=O)(=O)c2cn(CC(C)C)c3ncccc23)cc1 |
| 1160 | Cc1ccc(C)c(NC(=O)Cn2nc(N3CCCC(C)C3)c3ccccc3c2=O)c1 (centres undefined) |
| 957 | O=C(NC1CCCCC1)C1CCCN(c2nc3ccsc3c(=O)n2Cc2ccccc2)C1 (centres undefined) |
| 734 | CC(O)(CNC(=O)c1cnc2ccccc2n1)c1ccccc1 (centres undefined) |
| 616 | CN(C)c1ccc(-c2nc3cnccn3c2Nc2ccc(C(=O)O)cc2)cc1 |
